In patent US20230357312A1, “Borylated Di-Peptide Amino Acid compositions for use in Boron Neutron Capture Therapy and methods thereof” (TAE Life Sciences, priority 2021, published 2023):
In brackets after ≈: the same amount, converted by molar mass.

Columns and labels:
FaDu cells [1] = assay: Borylated dipeptide uptake in cancer cell lines (boron by ICP-OES); assay type: cell-based, human; conditions: 2.5 mM in HBSS, 37° C., 2 hrs; FaDu: high LAT1, PEPT1 negative
Protocol: (§1) The indicated cancer cell line (A) or FaDu cells (B) were harvested from culture and washed twice with PBS. Cell lines were adjusted to 2 million cells/ml in Hanks Balanced Salt Solution (HBSS). BPA or dipeptide boron compounds were added to cells at the final concentration of 2.5 mM in HBSS and the treated cells were incubated at 37° C. 5% CO2 for 2 hrs with shaking. The cells were collected by centrifugation; washed with cold PBS twice and reconstituted in 1 ml of cold PBS. Then, 50 µl of cell suspension was removed, pelleted, and lysed using RIPA buffer and the protein concentration was determined using BCA assay. The remaining 950 µl was used for boron compounds uptake measurements using ICP-OES.
To this end, 0.5 mL of concentrated nitric acid was added to each cell pellet in a 15 mL conical tube. The tubes were capped and placed in an oven set at 80° C. for 3 hours. 2 mL of water was added’ to each sample to bring the final volume up to 2.5 mL. The boron content in each sample was then measured on an Agilent 5110 ICP-OES using an Agilent SPS4 Autosampler for sample introduction.
The data was analyzed using Agilent’s ICP Expert Software, version 7.4.2.10790. Boron was measured axially at the 249.772 nm wavelength and the internal standard Beryllium was measured axially at the 313.042 nm wavelength. Beryllium was tee-ed into the solution at 1:5 the flowrate before introduction to the spray chamber. A standard curve using 1000, 100, 10, 1 and 0 ppb of boron was used to calculate the concentration of boron in each sample. Once determined, the boron measurement for each sample was normalized to protein content and final boron uptake results were expressed as ng boron/mg protein.
In another experiment, uptake of BPA and dipeptide His-BPA was carried out in FaDu, and ASPC-1 as described in FIG. 15. […] Accordingly, the data supports the finding that borylated dipeptides may be taken up efficiently in PEPT1 or other dipeptide transporter expressing cancers. See, FIG. 16(C).
In this experiment, the uptake of several dipeptide and dipeptide analogs was carried out in FaDu and ASPC-1 cells. Normalized boron uptake was determined as in FIG. 15. […] However, several dipeptides are still taken up in PEPT1 negative FaDu cells, although to a lower extent, which further confirms the proposition that an uptake mechanism does exist in FaDu cells for these dipeptides that is not PEPT1. See, FIG. 19.

FaDu cells [2] = assay: Dipeptide degradation to BPA by HPLC; assay type: in vitro ADME, human; conditions: for relative conversion into BPA in the presence of cells: 2.5 mM in HBSS, 4 hrs at 37° C., FaDu cells, RP-HPLC/MS semi-quantitative
Protocol: In this experiment, to investigate whether dipeptides are converted to BPA, which is then taken up through its cognate transporter, evaluation of whether dipeptides remained intact in the tissue culture media in the presence of absence of cancer cells was made using the following protocols. Briefly, FaDu cells were harvested and counted. The cell number was adjusted to 50×10^5 / mL in the HBSS tissue culture medium using 1 mL per well. The cells were incubated at 37° C. in the 5% CO2 overnight. At the end, the supernatants were aspirated, and cells were rinsed with 1 mL PBS once. Each test article was prepared at 2.5 mM concentration in HBSS medium, and 0.4 mL was added to cells. After 4 hrs. at 37° C. the supernatants were harvested and analyzed by RP HPLC using an ACQUITY BEH C18 column 2.1 × […] (Waters) equipped with a matching guard column equilibrated with 2% aqueous acetonitrile/0.1% formic acid mobile phase. The dipeptides were separated in the gradient of 90% acetonitrile/10% water/0.1% formic acid to 20% in 6 min and identified by UV225 nm. The masses were confirmed by an online QDA mass spectrometer. Breakdown of the original dipeptide was quantitated by comparing with the control - the same dipeptide incubated in the same fashion in the absence of cells. Stabilities of BPA-BPA, Ala-BPA, and BPA-Ala were compared, and the formation of BPA was measured semi-quantitatively by RP-HPLC/MS.

CT26 xenografts [3] = assay: BNCT tumor regression study, 6 minute irradiation; assay type: in vivo, BALB/c mice; conditions: 6 minutes irradiation
Protocol: In this experiment, CT26 xenografts in BALB/c mice were dosed with 400 mg/kg of BPA or 900 mg/kg of His-BPA or BPA-BPA. Following one (1) hour treatment time, mice were irradiated for 6 minutes at the Kyoto University Research Reactor (Kyoto, Japan) 1 set at 5 megawatts. Data are the means ± SD of 3 mice per treatment group. Tumors were measured for growth out to 36 days and examined for tumor presence at 40 days. BPA and control groups were sacrificed at day 18 due to excessive tumor growth.

FaDu cells [4] = assay: Uptake inhibition by PEPT1 competitive inhibitor Gly-SAR; assay type: cell-based, human; conditions: 0.8 mM test compound, with and without Gly-SAR
Protocol: (§2) In this experiment, uptake of BPA and dipeptide His-BPA (0.8 mM of each) was carried out in FaDu and ASPC-1 in the presence and absence of the indicated concentrations of PEPT1 dipeptide transporter competitive inhibitor Gly-SAR. Normalized boron uptake was determined as in FIG. 15.

AsPC-1 cells = assay: as above; assay type: cell-based, human; conditions: 0.8 mM test compound, with and without Gly-SAR
Protocol: as §2

CT26 xenografts [5] = assay: BNCT study, 12 or 6 minute irradiation at 5 MW; assay type: in vivo, BALB/c mice; conditions: monitored to 22 days
Protocol: Following one (1) hour of treatment time, mice were irradiated for either 12 minutes (33(A)) or 6 minutes (33(B)) at the Kyoto University Research Reactor (Kyoto, Japan) 1 set at 5 megawatts. Data are the means ± SD of 3 mice per treatment group. Tumors were measured for growth out to 22 days.

[6] = cited from earlier work
T98G = assay: Borylated dipeptide uptake in cancer cell lines (boron by ICP-OES); assay type: cell-based, human; conditions: 2.5 mM in HBSS, 37° C., 2 hrs
Protocol: as §1
(§3) To this end, 0.5 mL of concentrated nitric acid was added to each cell pellet in a 15 mL conical tube. The tubes were capped and placed in an oven set at 80° C. for 3 hours. […] The boron content in each sample was then measured on an Agilent 5110 ICP-OES using an Agilent SPS4 Autosampler for sample introduction.
(§4) The data was analyzed using Agilent’s ICP Expert Software, version 7.4.2.10790. Boron was measured axially at the 249.772 nm wavelength and the internal standard Beryllium was measured axially at the 313.042 nm wavelength. […] Once determined, the boron measurement for each sample was normalized to protein content and final boron uptake results were expressed as ng boron/mg protein.

CT26 = assay: as above; assay type: cell-based, mouse; conditions: 2.5 mM in HBSS, 37° C., 2 hrs
Protocol: as §1, §3, §4

[7] = Pharmacokinetics (blood boron by ICP OES); assay type: in vivo, Balb/C non-tumor bearing male mice; conditions: tail vein injection
Protocol: In this experiment, pharmacokinetics of BPA-BPA was evaluated using the following protocols. Briefly, […] of each compound was injected in the tail vein of Balb/C non-tumor bearing male mice (5 mice per group). Blood was drawn at the following time points: 2, 5, 16, 30, 60, 120 and 240 minutes into EDTA-coated tubes. Boron concentration was measured using ICP OES following the digestion in concentrated nitric acid for 1 hour. The boron concentration was normalized to 1 mL of blood and plotted using GraphPad Prizm. The PK parameters (see, FIG. 22, Table) were obtain using PK Solver ver. 2.0 using compartmental analysis BPA-fructose was used as a reference substance.

Solubility = assay type: physicochemical
[8] = test system: FaDu, Detroit-562, MeWo, HCC-1954, A549 and AsPC-1 human cancer xenograft models; assay: Dose escalation of boron delivery, all tested xenograft models; assay type: in vivo, CB17 SCID mice; conditions: 1000 mg/kg, 120 minutes
Protocol: Tumors were harvested 120 minutes following treatment and boron content determined by ICP-OES. Data are the means ± SD of 5 mice per treatment group.

[9] = Pharmacokinetics of BPA-BPA
Text: Table printed on a drawing sheet, Figure 28, continued. Title: Pharmacokinetics of BPA-BPA The patent's description of the figure: FIG. 28. Pharmacokinetics of BPA-BPA. First reader's note: Continuation of Figure 28; BPA-BPA is a borylated dipeptide, BPA Fructose is the comparator formulation.

A431 = assay: Borylated dipeptide uptake in cancer cell lines (boron by ICP-OES); assay type: cell-based; conditions: 2.5 mM in HBSS, 37° C., 2 hrs
Protocol: as §1, §3, §4

intracranial tumor = conditions: BNCT, Japan, 1968; cited from earlier work

C[C@H](N)C(=O)N[C@@H](Cc1ccc(B(O)O)cc1)C(=O)O [Ala-BPA, Alanine-BPA]
boron uptake (compared in words) (FaDu cells [1]): to a lower extent than BPA | relative conversion into BPA in the presence of cells (FaDu cells [2]): Ala-BPA > BPA-BPA > BPA-Ala

N[C@@H](Cc1ccc(B(O)O)cc1)C(=O)O [BPA, 4-Borono-L-phenylalanine, reference compound]
tumor growth after BNCT (CT26 xenografts [3]; 400 mg/kg, group sacrificed by day 18): continued tumor growth | boron uptake (compared in words) (FaDu cells [1]): to a much greater extent than His-BPA | effect of Gly-SAR on boron uptake (FaDu cells [4]): no effect | effect of Gly-SAR on boron uptake (AsPC-1 cells): no effect | tumor growth after BNCT (CT26 xenografts [5]; 200 mg/kg, 6 minutes irradiation at 5 MW): only modest tumor inhibition | tumor growth after BNCT (CT26 xenografts [5]; 200 mg/kg, 12 minutes irradiation at 5 MW): significant and similar growth inhibition, even regression | solubility ([6]; L-BPA without fructose): 1700 µg/mL (≈ 8.13 mM) | concentration achieved with fructose formulation ([6]; fructose formulation, quasi-stable solution): 30000 µg/mL

CC(NC(=O)[C@@H](N)Cc1ccc(B(O)O)cc1)C(=O)O (stereo partly drawn) [BPA-Ala, BPA-Alanine]
boron uptake (compared in words) (FaDu cells [1]): to a lower extent than BPA | relative conversion into BPA in the presence of cells (FaDu cells [2]): Ala-BPA > BPA-BPA > BPA-Ala

N[C@@H](Cc1ccc(B(O)O)cc1)C(=O)N[C@@H](Cc1ccc(B(O)O)cc1)C(=O)O [BPA-BPA]
tumor growth after BNCT (CT26 xenografts [3]; 900 mg/kg, sustained out to 36 days): significant tumor regression | boron uptake compared to BPA (T98G): to a similar extent | boron uptake (compared in words) (FaDu cells [1]): slightly lower than the LAT1 substrate BPA | boron uptake compared to BPA (CT26): to a similar extent | clearance (CL) compared to BPA [7]: remarkably similar | total drug exposure across time (AUC from zero to infinity) compared to BPA [7]: marginally lower | t½ beta (elimination phase) compared to BPA [7]: remarkably similar | pharmacokinetic profile ([7]; blood boron): bi-phasic pharmacokinetics | solubility (in words, compared to BPA) (Solubility): improved solubility | tumor boron delivery, rank among treatments [8]: greatest boron to all tested xenografts | tumor growth after BNCT (CT26 xenografts [5]; 800 mg/kg, 12 minutes irradiation at 5 MW): significant and similar growth inhibition, even regression | AUC (0 − t) [9]: 20463.9 µg·min/mL | AUC (0 − ∞) [9]: 29133.2 µg·min/mL | C0 [9]: 522.0 µg/mL | CL, mg/(μg/mL)/min [9]: 0.000113 mg/(μg/mL)/min | CMAX [9]: 362.83 µg/mL | relative conversion into BPA in the presence of cells (FaDu cells [2]): Ala-BPA > BPA-BPA > BPA-Ala | formation of BPA in the absence of cells (FaDu cells [2]; 2.5 mM, 4 hrs, media, no cells): Only trace amount of BPA | boron uptake compared to BPA (A431): slightly lower than the LAT1 substrate BPA

CC(C)C[C@H](N)C(=O)N[C@@H](Cc1ccc(B(O)O)cc1)C(=O)O [Leu-BPA, Leucine-BPA]
boron uptake (compared in words) (FaDu cells [1]): to a lower extent than BPA

sodium borocaptate [BSH]
5-year survival rate (intracranial tumor): 58%
